Reference: patent US20240368135A1 (VERTEX PHARMACEUTICALS INCORPORATED, priority 2021, published 2024)
Like-named read-outs stand apart in the source and are kept apart here.

Target: human NaV 1.8 (Homo sapiens, UniProt Q9Y5Y9)
Experiment: E-VIPR assay detecting and measuring NaV inhibition properties
Format: cell-based
Details: HEK cells expressing truncated human NaV 1.8
From the text: Sodium ion channels are voltage-dependent proteins that can be activated by inducing membrane voltage changes by applying electric fields. The electrical stimulation instrument and methods of use, referred to as E-VIPR, are described in International Publication No. WO 2002/008748 A3 and C.-J. Huang et al. Characterization of voltage-gated sodium channel blockers by electrical stimulation and fluorescence detection of membrane potential, 24 Nature Biotech. 439-46 (2006), both of which are incorporated by reference in their entirety. The instrument comprises a microtiter plate handler, an optical system for exciting the coumarin dye while simultaneously recording the coumarin and oxonol emissions, a waveform generator, a current- or voltage-controlled amplifier, and parallel electrode pairs that are inserted into assay plate wells. Under integrated computer control, this instrument passes user-programmed electrical stimulus protocols to cells within the wells of the microtiter plate.
16-20 hours prior to running the assay on E-VIPR, HEK cells expressing a truncated form of human NaV 1.8 with full channel activity were seeded into microtiter 384-well plates, pre-coated with matrigel, at a density of 25,000 cells per well. 2.5-5% KIR2.1 Bacmam virus was added to the final cell suspension before seeding into cell plates. HEK cells were grown in Dulbecco's Modified Eagle's Medium (DMEM) supplemented with 10% FBS (Fetal Bovine Serum, qualified; Sigma #F4135), 1% NEAA (Non-Essential Amino Acids, Gibco #11140), 1% HEPES (Gibco #15630), 1% Pen-Strep (Penicillin-Streptomycin; Gibco #15140) and 5 μg/ml Blasticidin (Gibco #R210-01). Cells were expanded in vented cap cell culture flasks, with 90-95% humidity and 5% CO2.
Human Serum (HS, Millipore #S1P1-01KL, or Sigma SLBR5469V and SLBR5470V as a 50%/50% mixture, for 25% assay final concentration) • Bath 1 Buffer: • Sodium Chloride 160 mM (9.35 g/L), Potassium Chloride, 4.5 mM (0.335 g/L), Glucose 10 mM (1.8 g/L), Magnesium Chloride (Anhydrous) 1 mM (0.095 g/L), Calcium Chloride 2 mM (0.222 g/L), HEPES 10 mM (2.38 g/L) in water. • Na/TMA C1 Bath 1 Buffer: • Sodium Chloride 96 mM (5.61 g/L), Potassium Chloride 4.5 mM (0.335 g/L), Tetramethylammonium (TMA)-Cl 64 mM (7.01 g/L), Glucose 10 mM (1.8 g/L), Magnesium Chloride (Anhydrous) 1 mM (0.095 g/L), Calcium Chloride 2 mM (0.222 g/L) HEPES 10 mM (2.38 g/L) in water. • Hexyl Dye Solution (2× concentration): • Bath 1 Buffer containing 0.5% P-cyclodextrin (made fresh prior to each use, Sigma #C4767), 8 μM CC2-DMPE and 2 μM DiSBAC6(3). The solution was made by adding 10% Pluronic F127 stock equal to combined volumes of CC2-DMPE and DiSBAC6(3). The order of preparation was first mix Pluronic and CC2-DMPE, then add DiSBAC6(3), then while vortexing add Bath 1/p-Cyclodextrin.
Compound Loading Buffer (2× concentration): Na/TMA C1 Bath1 Buffer containing HS (omitted in experiments run in the absence of human serum (HS)) 50%, VABSC-1 1 mM, BSA 0.2 mg/ml (in Bath-1), KCl 9 mM, DMSO 0.625%.
1) To reach the final concentration in each well, 375 nL of each compound was pre-spotted (in neat DMSO) into polypropylene compound plates at 240× desired final concentration from an intermediate stock concentration of 0.075 mM, in an 11 point dose response, 3-fold dilution, resulting in a top dose of 300 nM final concentration in the cell plate. Vehicle control (neat DMSO), and positive control (an established NaV1.8 inhibitor, 25 μM final in assay in DMSO) were added manually to the outermost columns of each plate respectively. The compound plate was backfilled with 45 μL per well of Compound Loading Buffer resulting in a 240 fold dilution of compound following a 1:1 transfer of compound into the cell plate (see Step 6). Final DMSO concentration for all wells in the assay was 0.625% (0.75% DMSO was supplemented to the Compound Loading Buffer for a final DMSO concentration of 0.625%). […]

[1] = no human serum, read-out: IC50 in the E-VIPR Assay
[2] = in the presence of human serum (compound numbers followed by *), read-out: IC50 in the E-VIPR Assay, performed in the presence of human serum

human NaV 1.8, sequence (Q9Y5Y9 126-399 limits assumed): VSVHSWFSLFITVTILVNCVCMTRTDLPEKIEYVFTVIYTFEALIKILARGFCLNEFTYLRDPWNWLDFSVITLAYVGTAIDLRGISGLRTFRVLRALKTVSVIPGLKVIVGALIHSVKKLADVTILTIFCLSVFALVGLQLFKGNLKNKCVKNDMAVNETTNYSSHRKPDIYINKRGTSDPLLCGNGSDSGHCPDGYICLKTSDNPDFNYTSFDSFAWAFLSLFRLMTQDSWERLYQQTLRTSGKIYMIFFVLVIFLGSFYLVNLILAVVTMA
human NaV 1.8, sequence (Q9Y5Y9 660-890 limits assumed): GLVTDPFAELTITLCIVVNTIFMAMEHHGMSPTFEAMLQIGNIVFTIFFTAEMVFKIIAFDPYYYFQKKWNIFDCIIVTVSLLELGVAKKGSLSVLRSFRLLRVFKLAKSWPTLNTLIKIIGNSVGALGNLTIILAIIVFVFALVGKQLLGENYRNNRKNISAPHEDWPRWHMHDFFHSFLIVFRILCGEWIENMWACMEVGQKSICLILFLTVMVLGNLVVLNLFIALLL
human NaV 1.8, sequence (Q9Y5Y9 1148-1722 limits assumed): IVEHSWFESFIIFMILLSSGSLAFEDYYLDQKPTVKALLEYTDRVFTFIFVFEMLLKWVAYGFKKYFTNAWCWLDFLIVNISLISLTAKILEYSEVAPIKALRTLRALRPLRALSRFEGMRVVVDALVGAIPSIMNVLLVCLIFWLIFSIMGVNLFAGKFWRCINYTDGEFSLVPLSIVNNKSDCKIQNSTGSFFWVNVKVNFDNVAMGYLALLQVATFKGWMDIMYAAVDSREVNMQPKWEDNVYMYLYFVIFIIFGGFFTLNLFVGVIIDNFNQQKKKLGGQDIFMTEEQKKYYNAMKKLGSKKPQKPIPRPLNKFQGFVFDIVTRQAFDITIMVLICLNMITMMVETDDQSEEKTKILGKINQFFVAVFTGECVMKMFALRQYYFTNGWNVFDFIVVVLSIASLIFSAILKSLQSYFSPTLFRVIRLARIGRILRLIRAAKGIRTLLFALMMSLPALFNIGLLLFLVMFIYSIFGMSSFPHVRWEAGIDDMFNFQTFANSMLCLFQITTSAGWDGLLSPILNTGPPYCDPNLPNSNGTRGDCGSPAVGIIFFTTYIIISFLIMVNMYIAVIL

Compound	IC50 [1] [nM]	IC50 [2] [nM]
COc1c([C@H]2[C@H](C(=O)Nc3cn(C[C@@H](O)CO)nc3C)O[C@@](C)(C(F)(F)F)[C@H]2C)ccc(F)c1F [Compound 201, (2R,3S,4S,5R)-3-(3,4-difluoro-2-methoxyphenyl)-N-(1-((R)-2,3-dihydroxypropyl)-3-methyl-1H-pyrazol-4-yl)-4,5-dimethyl-5-(trifluoromethyl)tetrahydrofuran-2-carboxamide]	< 10	
CCS(=O)(=O)c1cc(NC(=O)[C@H]2O[C@](C)(C(F)(F)F)[C@H](C)[C@@H]2c2ccc(F)c(F)c2OC(F)F)ccn1 (single isomer, unassigned) [Compound 89]	100 to 1000	
COCc1c(F)ccc([C@@H]2[C@@H](C(=O)Nc3ccc(C(N)=O)nc3)O[C@](C)(C(F)(F)F)[C@@H]2C)c1OC (stereo in doubt) [Compound 178, rel-5-((2S,3R,4R,5S)-3-(4-fluoro-2-methoxy-3-(methoxymethyl)phenyl)-4,5-dimethyl-5-(trifluoromethyl)tetrahydrofuran-2-carboxamido)picolinamide]	≥ 1000	
COc1cc(NC(=O)[C@@H]2O[C@@](C)(C(F)(F)F)[C@@H](C)[C@H]2c2ccc(F)c(F)c2OCCO)ccn1 [Compound 544, (2R,3S,4S,5R)-3-(3,4-difluoro-2-(2-hydroxyethoxy)phenyl)-N-(2-methoxypyridin-4-yl)-4,5-dimethyl-5-(trifluoromethyl)tetrahydrofuran-2-carboxamide]	10 to 100	
C[C@@H]1[C@H](c2ccc(F)c(F)c2OC(F)F)[C@@H](C(=O)Nc2ccnc(CCO)c2)O[C@]1(C)C(F)(F)F (single isomer, unassigned) [Compound 457]		≥ 1000
C[C@H]1[C@@H](c2ccc(F)c(F)c2OC(F)F)[C@H](C(=O)Nc2ccc(=O)n(C)c2)O[C@@]1(C)C(F)(F)F (single isomer, unassigned) [Compound 68]	10 to 100	
COc1c(C2C(C(=O)Nc3ccnc(C(O)CO)c3)OC(C)(C(F)(F)F)C2C)ccc(F)c1F (single isomer, unassigned) [Compound 46, 3-(3,4-difluoro-2-methoxy-phenyl)-N-[2-(1,2-dihydroxyethyl)-4-pyridyl]-4,5-dimethyl-5-(trifluoromethyl)tetrahydrofuran-2-carboxamide]	< 10	
COc1c([C@H]2[C@H](C(=O)Nc3ccnc(C(O)C4CC4)c3)O[C@@](C)(C(F)(F)F)[C@H]2C)ccc(F)c1F (single isomer, unassigned) [Compound 251, rel-(2R*,3S*,4S*,5R*)-N-(2-(cyclopropyl(hydroxy)methyl)pyridin-4-yl)-3-(3,4-difluoro-2-methoxyphenyl)-4,5-dimethyl-5-(trifluoromethyl)tetrahydrofuran-2-carboxamide]	< 10	
Cc1nn(C(F)F)cc1NC(=O)[C@@H]1O[C@@](C)(C(F)(F)F)[C@@H](C)[C@H]1c1ccc(F)c(F)c1CO [Compound 668, (2R,3S,4S,5R)-3-(3,4-difluoro-2-(hydroxymethyl)phenyl)-N-(1-(difluoromethyl)-3-methyl-1H-pyrazol-4-yl)-4,5-dimethyl-5-(trifluoromethyl)tetrahydrofuran-2-carboxamide]	10 to 100	
Cc1ncc(C2CCOC2)cc1NC(=O)[C@@H]1O[C@@](C)(C(F)(F)F)[C@@H](C)[C@H]1c1ccc(F)c(F)c1OCCO (stereo partly drawn) [Compound 551, (2R,3S,4S,5R)-3-(3,4-difluoro-2-(2-hydroxyethoxy)phenyl)-4,5-dimethyl-N-(2-methyl-5-(tetrahydrofuran-3-yl)pyridin-3-yl)-5-(trifluoromethyl)tetrahydrofuran-2-carboxamide]	≥ 1000	
COc1c([C@H]2[C@H](C(=O)Nc3ccc(C(=O)O)nc3)O[C@@](C)(C(F)(F)F)[C@H]2C)ccc(F)c1F [Compound 19, 5-[[(2R,3S,4S,5R)-3-(3,4-difluoro-2-methoxy-phenyl)-4,5-dimethyl-5-(trifluoromethyl)tetrahydrofuran-2-carbonyl]amino]pyridine-2-carboxylic acid]	< 10	
COc1c([C@H]2[C@H](C(=O)Nc3ccc(S(N)(=O)=O)nc3)O[C@@](C)(C(F)(F)F)[C@H]2C)ccc(F)c1F [Compound 235, (2R,3S,4S,5R)-3-(3,4-difluoro-2-methoxy-phenyl)-4,5-dimethyl-N-(6-sulfamoyl-3-pyridyl)-5-(trifluoromethyl)tetrahydrofuran-2-carboxamide]	10 to 100	
C[C@H]1[C@@H](c2ccc(F)c(F)c2OC2CC(O)C2)[C@H](C(=O)Nc2cccnc2)O[C@@]1(C)C(F)(F)F (stereo partly drawn) [Compound 654, (2R,3S,4S,5R)-3-(3,4-difluoro-2-((1S,3R)-3-hydroxycyclobutoxy)phenyl)-4,5-dimethyl-N-(pyridin-3-yl)-5-(trifluoromethyl)tetrahydrofuran-2-carboxamide]	< 10	
COc1c([C@H]2[C@H](C(=O)Nc3ccnc(N4C[C@@H]5CC[C@@H](N5)C4=O)c3)O[C@@](C)(C(F)(F)F)[C@H]2C)ccc(F)c1F (single isomer, unassigned) [Compound 494, rel-(2R*,3S*,4S*,5R*)-3-(3,4-difluoro-2-methoxyphenyl)-4,5-dimethyl-N-(2-((1R,5S)-2-oxo-3,8-diazabicyclo[3.2.1]octan-3-yl)pyridin-4-yl)-5-(trifluoromethyl)tetrahydrofuran-2-carboxamide]	10 to 100	
C[C@@H]1[C@H](c2ccc(F)c(F)c2OC(F)F)[C@@H](C(=O)Nc2ccnc(S(C)(=O)=O)c2)O[C@]1(C)C(F)(F)F (single isomer, unassigned) [Compound 86]		≥ 1000
CCOc1c([C@H]2[C@H](C(=O)Nc3ccnc(C(O)CO)c3)O[C@@](C)(C(F)(F)F)[C@H]2C)ccc(F)c1F (single isomer, unassigned) [Compound 104, rel-(2R*,3S*,4S*,5R*)-N-(2-(1,2-dihydroxyethyl)pyridin-4-yl)-3-(2-ethoxy-3,4-difluorophenyl)-4,5-dimethyl-5-(trifluoromethyl)tetrahydrofuran-2-carboxamide]	< 10	
COc1c([C@H]2[C@H](C(=O)Nc3cc(C(O)CN(C)C)ncc3F)O[C@@](C)(C(F)(F)F)[C@H]2C)ccc(F)c1F (single isomer, unassigned) [Compound 377]	< 10	
Cc1nn(S(C)(=O)=O)cc1NC(=O)[C@@H]1O[C@@](C)(C(F)(F)F)[C@@H](C)[C@H]1c1ccc(F)c(F)c1OCCO [Compound 538, (2R,3S,4S,5R)-3-(3,4-difluoro-2-(2-hydroxyethoxy)phenyl)-4,5-dimethyl-N-(3-methyl-1-(methylsulfonyl)-1H-pyrazol-4-yl)-5-(trifluoromethyl)tetrahydrofuran-2-carboxamide]	< 10	
COc1c([C@H]2[C@H](C(=O)Nc3ccnc(N4C[C@@H]5C[C@H](C4=O)N5C)c3)O[C@@](C)(C(F)(F)F)[C@H]2C)ccc(F)c1F (single isomer, unassigned) [Compound 510, rel-(2R*,3S*,4S*,5R*)-3-(3,4-difluoro-2-methoxyphenyl)-4,5-dimethyl-N-(2-((1R,5S)-6-methyl-2-oxo-3,6-diazabicyclo[3.1.1]heptan-3-yl)pyridin-4-yl)-5-(trifluoromethyl)tetrahydrofuran-2-carboxamide]	10 to 100	
C[C@H]1[C@@H](c2ccc(F)c(F)c2OCCN2CC(F)C2)[C@H](C(=O)Nc2ccc3nncn3c2)O[C@@]1(C)C(F)(F)F [Compound 635]	10 to 100	
